We go through one compound from patent US12606543B2, “Indole derivatives as serotonergic agents useful for the treatment of disorders related thereto” (priority 2023, dated 2026).

SMILES strings stand for the structures.

Data set [1] in a line: Liver microsomes stability, human. It is filed as in vitro ADME. The conditions noted are these: human liver microsomes. Here is the method: (§1) The objective of this study was to estimate in vitro metabolic stability of exemplary compounds of Formula (I) or a pharmaceutically acceptable salt, solvate, and/or prodrug thereof in pooled human, male rat, and male mouse liver microsomes. The concentrations of compounds in reaction systems were evaluated by LC-MS/MS for estimating the stability in pooled human, male rat, and male mouse liver microsomes. The in vitro intrinsic clearances of test compounds were determined as well.
(§2) A master solution in the “Incubation Plate” containing phosphate buffer, ultra-pure H2O, MgCl2 solution and liver microsomes was made according to Table 33. The mixture was pre-warmed at 37° C. water bath for 5 minutes.
(§3) 40 μL of 10 mM nicotinamide adenine dinucleotide phosphate (NADPH) solution was added to each well. The final concentration of NADPH was 1 mM. The negative control samples were prepared by replacing NADPH with 40 μL of ultra-pure H2O. Samples were prepared in duplicate. Negative controls were prepared in singlet.
(§4) The reaction was started with the addition of 4 μL of 200 μM exemplary test compounds of the disclosure or control compounds to each master solution to get the final concentration of 2 μM. This study was performed in duplicate.
(§5) Aliquots of 50 μL were taken from the reaction solution at 0, 15, 30, 45, and 60 minutes. The reaction solutions were stopped by the addition of 4 volumes of cold methanol with IS (100 nM alprazolam, 200 nM imipramine, 200 nM labetalol, and 2 μM ketoprofen). Samples were centrifuged at 3,220 g for 40 minutes. Aliquot of 90 μL of the supernatant was mixed with 90 μL of ultra-pure H2O and then was used for LC-MS/MS analysis.
(§6) LC/MS analysis was performed for all samples from this study using a Shimadzu liquid chromatograph separation system equipped with degasser DGU-20A5R; solvent delivery unit LC-30AD; system controller SIL-30AC; column oven CTO-30A; CTC Analytics HTC PAL System. Mass spectrometric analysis was performed using a Triple Quad™ 5500 instrument.
(§7) All calculations were carried out using Microsoft Excel. Peak area ratios of test compound to internal standard (listed in the below table) were determined from extracted ion chromatograms.
(§8) All calculations were carried out using Microsoft Excel. Peak areas were determined from extracted ion chromatograms. The slope value, k, was determined by linear regression of the natural logarithm of the remaining percentage of the parent drug vs. incubation time curve.
(§9) The in vitro half-life (in vitro t1/2) was determined from the slope value:
(§10) Conversion of the in vitro t1/2 (min) into the in vitro intrinsic clearance (in vitro CLint, in μL/min/mg proteins) was done using the following equation (mean of duplicate determinations): […]
(§11) The objective of this study was to estimate in vitro metabolic stability of exemplary compounds of Formula (I) or a pharmaceutically acceptable salt, solvate and/or prodrug thereof in pooled human, male rat and male mouse liver microsomes. The concentrations of compounds in reaction systems were evaluated by LC-MS/MS for estimating the stability in pooled human, male rat and male mouse liver microsomes. The in vitro intrinsic clearances of test compounds were determined as well.
(§12) A master solution in the “Incubation Plate” containing phosphate buffer, ultra-pure H2O, MgCl2 solution and liver microsomes was made according to Table 67. The mixture was pre-warmed at 37° C. water bath for 5 minutes.
(§13) 40 μL of 10 mM NADPH solution was added to each well. The final concentration of NADPH was 1 mM. The negative control samples were prepared by replacing NADPH with 40 μL of ultra-pure H2O. Samples were prepared in duplicate. Negative controls were prepared in singlet
Aliquots of 50 μL were taken from the reaction solution at 0, 15, 30, 45 and 60 minutes. The reaction solutions were stopped by the addition of 4 volumes of cold methanol with IS (100 nM alprazolam, 200 nM imipramine, 200 nM labetalol and 2 μM ketoprofen).

Data set [2] can be described thus: Plasma protein binding by equilibrium dialysis, rat. As for the experimental part: 1. The Frozen Plasma (Stored at −80° C.) was Thawed Immediately in a 37° C. Water Bath.
The working solution of test compounds and control compound was prepared in DMSO at the concentration of 200 μM, and then the working solution was spiked into plasma. The final concentration of compound was 1 μM. The final concentration of DMSO was 0.5%. Ketoconazole was used as positive control in the assay.
The dialysis membranes were soaked in ultrapure water for 60 minutes to separate strips, then in 20% ethanol for 20 minutes, finally in dialysis buffer for 20 minutes.
The dialysis set up was assembled according to the manufacturer's instruction. Each Cell was with 150 μL of plasma sample and dialyzed against equal volume of dialysis buffer (PBS). The assay was performed in duplicate. The dialysis plate was sealed and incubated in an incubator at 37° C. with 5% CO2 at 100 rpm for 6 hours. At the end of incubation, 50 μL of samples from both buffer and plasma chambers were transferred to wells of a 96-well plate.
50 μL of plasma was added to each buffer samples and an equal volume of PBS was supplemented to the collected plasma sample. 400 μL of precipitation buffer acetonitrile containing internal standards (IS, 200 nM labetalol, 100 nM tolbutamide and 100 nM ketoprofen) was added to precipitate protein and release compounds. Samples were vortexed for 2 minutes and centrifuged for 30 minutes at 3,220 g. Aliquot of 50 μL of the supernatant was diluted by 150 μL acetonitrile containing internal standards: ultra-pure H2O=1:1, and the mixture was used for LC-MS/MS analysis.
All calculations were carried out using Microsoft Excel. The concentrations of test compounds in the buffer and plasma chambers were determined from peak area ratios. The percentages of bound compound were calculated as follows: […]
The working solution of test compounds and control compound was prepared in DMSO at the concentration of 200 μM, and then the working solution was spiked into plasma. The final concentration of compound was […]. The final concentration of DMSO was 0.5%. Ketoconazole was used as positive control in the assay.

Data set [3] is described as follows: Liver microsomes stability, mouse. It is filed as in vitro ADME. The conditions noted are these: mouse liver microsomes. Here is the method:
as §1, §2, §3, §4, §5, §6, §7, §8, §9, §10, §11, §12, §13
Aliquots of 50 μL were taken from the reaction solution at 0, 15, 30, 45 and 60 minutes. The reaction solutions were stopped by the addition of 4 volumes of cold methanol with IS (100 nM alprazolam, 200 nM imipramine, 200 nM labetalol and 2 μM ketoprofen). […]

Setting [4] is: 2 μM compound, 0.5 mg/mL microsomes.
Setting [5] is: male, pooled liver microsomes, 2 μM compound, 0.5 mg/mL microsomes.

On to `COCCN1CCC[C@@H]1Cc1c[nH]c2ccc(OC)cc12` [(R) I-98, (R)-5-Methoxy-3-((1-(2-methoxyethyl)pyrrolidin-2-yl)methyl)-1H-indole], for which the results for the “Predicted hepatic CL” value in data set [1] and in data set [3] were 11.72 mL/min/kg and 74.16 mL/min/kg, respectively. Also, the figures for the half-life at 2 μM in data set [1] (setting [4]) and in data set [3] (setting [5]) were 64.3 min and 14.4 min, respectively. The microsomal CLint at 2 μM in data set [1] (setting [4]) is 21.6 µL/min/mg; in data set [3] (setting [5]), 96.3 µL/min/mg. In addition, the “Remaining Percentage” value came out at 100.00% in data set [1] (With Cofactors, 30 min); 67.04% in data set [1] (With Cofactors, 60 min); 100.00% in data set [1] (Without Cofactors, 30 min); 98.21% in data set [1] (Without Cofactors, 60 min); 100.00% in data set [3] (With Cofactors, 30 min); 14.54% in data set [3] (With Cofactors, 60 min). In addition, the “Remaining Percentage” value turned out to be 100.00% in data set [3] (Without Cofactors, 30 min) and 100.99% in data set [3] (Without Cofactors, 60 min). The CLint scaled at 2 μM was 27 mL/min/kg in data set [1] (read-out: Scaled-up CLint) and 421 mL/min/kg in data set [3] (male, read-out: Scaled-up CLint). The fraction unbound at 6 h, 1 μM in data set [2] (SD, rat, plasma) is 0.569. In data set [2] (Sprague-Dawley (SD), rat), this compound had a recovery at 6 h, 1 µM of 88%. The “% Remaining @ 6 hours” value in data set [2] (rat plasma, 6 hours) turned out to be 96.55%.
